T1: S-Acetyl-coenzyme A synthetase (EC 6.2.1.1) from baker's yeast, Immobilized enzyme (PEI-PNIPAm) (Saccharomyces cerevisiae, UniProt Q01574)
T1 construct: purchased Sigma-Aldrich (Germany)
T1 sequence (Q01574 1-713): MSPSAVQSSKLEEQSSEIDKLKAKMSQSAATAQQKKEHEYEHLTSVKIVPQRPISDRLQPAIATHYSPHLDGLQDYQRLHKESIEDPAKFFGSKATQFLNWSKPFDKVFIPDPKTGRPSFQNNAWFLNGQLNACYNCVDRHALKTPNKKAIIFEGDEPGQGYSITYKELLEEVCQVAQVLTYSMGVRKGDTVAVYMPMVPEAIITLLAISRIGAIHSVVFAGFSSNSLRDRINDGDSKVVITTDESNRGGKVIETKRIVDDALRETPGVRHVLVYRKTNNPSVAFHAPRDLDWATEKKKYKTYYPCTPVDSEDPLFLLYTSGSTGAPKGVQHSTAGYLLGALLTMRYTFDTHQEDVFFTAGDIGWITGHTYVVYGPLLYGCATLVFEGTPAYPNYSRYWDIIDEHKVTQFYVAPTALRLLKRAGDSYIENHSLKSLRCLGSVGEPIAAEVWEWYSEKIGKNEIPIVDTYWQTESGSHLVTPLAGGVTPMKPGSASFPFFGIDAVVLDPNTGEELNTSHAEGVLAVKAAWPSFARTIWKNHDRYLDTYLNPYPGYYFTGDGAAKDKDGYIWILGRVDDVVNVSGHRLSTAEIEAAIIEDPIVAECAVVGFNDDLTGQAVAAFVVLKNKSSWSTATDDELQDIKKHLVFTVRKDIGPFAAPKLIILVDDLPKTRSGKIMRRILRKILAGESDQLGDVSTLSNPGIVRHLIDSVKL

T2: S-Acetyl-coenzyme A synthetase (EC 6.2.1.1) from baker's yeast, free enzyme (Saccharomyces cerevisiae, UniProt Q01574)
T2 construct: purchased Sigma-Aldrich (Germany)
T2 sequence (Q01574 1-713): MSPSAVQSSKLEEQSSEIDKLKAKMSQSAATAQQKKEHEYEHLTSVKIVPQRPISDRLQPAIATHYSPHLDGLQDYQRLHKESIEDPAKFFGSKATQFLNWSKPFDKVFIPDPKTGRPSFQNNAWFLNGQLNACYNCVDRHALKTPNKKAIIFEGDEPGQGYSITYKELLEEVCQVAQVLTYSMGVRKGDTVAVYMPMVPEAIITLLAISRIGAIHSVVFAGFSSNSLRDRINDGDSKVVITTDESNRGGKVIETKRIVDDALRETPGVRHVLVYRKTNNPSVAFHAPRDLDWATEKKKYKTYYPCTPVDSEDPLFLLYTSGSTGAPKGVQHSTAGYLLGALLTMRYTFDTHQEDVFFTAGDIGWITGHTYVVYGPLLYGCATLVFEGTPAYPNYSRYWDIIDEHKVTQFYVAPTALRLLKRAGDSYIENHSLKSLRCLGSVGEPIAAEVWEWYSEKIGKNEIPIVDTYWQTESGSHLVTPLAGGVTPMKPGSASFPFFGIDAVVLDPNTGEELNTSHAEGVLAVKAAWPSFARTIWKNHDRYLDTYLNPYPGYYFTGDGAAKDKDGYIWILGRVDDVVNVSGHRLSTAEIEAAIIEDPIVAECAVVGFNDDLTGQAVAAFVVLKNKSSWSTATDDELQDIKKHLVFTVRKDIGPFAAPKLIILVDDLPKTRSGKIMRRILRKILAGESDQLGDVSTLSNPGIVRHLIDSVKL

T3: S-Acetyl-coenzyme A synthetase (EC 6.2.1.1) from baker's yeast, Immobilized enzyme (PNIPAm-AEMA) (Saccharomyces cerevisiae, UniProt Q01574)
T3 construct: purchased Sigma-Aldrich (Germany)
T3 sequence (Q01574 1-713): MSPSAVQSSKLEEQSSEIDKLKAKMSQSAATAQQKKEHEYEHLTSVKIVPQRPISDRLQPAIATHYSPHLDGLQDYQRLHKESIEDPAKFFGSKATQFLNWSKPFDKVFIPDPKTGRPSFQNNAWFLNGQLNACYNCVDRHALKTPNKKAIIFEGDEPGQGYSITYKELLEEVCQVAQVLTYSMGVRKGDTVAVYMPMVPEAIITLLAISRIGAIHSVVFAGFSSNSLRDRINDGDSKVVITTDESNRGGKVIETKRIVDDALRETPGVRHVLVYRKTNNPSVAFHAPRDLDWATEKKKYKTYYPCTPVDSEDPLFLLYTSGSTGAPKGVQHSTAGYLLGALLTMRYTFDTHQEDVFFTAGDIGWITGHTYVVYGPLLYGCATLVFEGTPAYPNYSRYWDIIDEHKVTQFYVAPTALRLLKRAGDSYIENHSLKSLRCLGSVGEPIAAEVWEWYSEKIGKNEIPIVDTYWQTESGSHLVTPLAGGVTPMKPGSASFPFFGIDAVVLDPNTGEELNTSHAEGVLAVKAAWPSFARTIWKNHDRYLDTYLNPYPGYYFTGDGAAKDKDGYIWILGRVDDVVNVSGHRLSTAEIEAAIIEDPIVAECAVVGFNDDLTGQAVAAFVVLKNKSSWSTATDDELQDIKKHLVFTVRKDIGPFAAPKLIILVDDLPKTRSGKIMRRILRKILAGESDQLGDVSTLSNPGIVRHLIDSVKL


Legend:
[1] = target: T1, S-Acetyl-coenzyme A synthetase (EC 6.2.1.1) from baker's yeast, Immobilized enzyme (PEI-PNIPAm); test: Reaction kinetics of PEI-PNIPAm-immobilized Acetyl CoA-synthetase for acetate (citrate synthase/malate dehydrogenase coupled assay, Table 2); format: biochemical; settings: acetate substrate at 37°C; ATP 1 mM, CoA 0.5 mM; enzyme adsorbed on PEI-PNIPAm microgel
Procedure: The immobilization of Acetyl CoA-synthetase on PEI-PNIPAm microgel was achieved via adsorption in 0.1 M Tris-CI buffer at pH 8 for 6 h at 4°C. The conjugate was obtained by centrifugation at 12,000 rpm for 15 min at 25°C and subsequently washed with the same buffer to remove non adsorbed enzymes. Using Micro BCA (for protein concentrations lower than 20 µg/mL) assay kits, the amounts of adsorbed enzyme loaded to the microgel was determined by subtracting the residual protein content in the supernatant from the initial protein content. The enzyme and conjugate were stored in 0.1 M Borate buffer containing 1 mM glutathione and 1 mM magnesium chloride pH 8 for further use.
The activity of free and immobilized Acs was determined spectrophotometrically by following acetyl CoA synthesis at 340 nm wavelength by coupling to Citrate synthase (CS) and malate dehydrogenase (MDH) assay. […]
(§1) Assuming Michaelis-Menten kinetics for Acetyl CoA-synthetase by the following equations: V = (Vmax [S])/(Km + [S]) [formula] where V is the rate of the reaction, [S] is the concentration of the substrate, Km is the apparent constant, and Vmax is the maximum of reaction velocity. The values for Km and Vmax, were estimated with the help of a Lineweaver-Burk plot for the Michaelis-Menten equation expressed as follows: (1)/(V) = (Km)/(Vmax)[…](1)/([S]) + (1)/(Vmax) [formula] […]

[2] = target: T2, S-Acetyl-coenzyme A synthetase (EC 6.2.1.1) from baker's yeast, free enzyme; test: Reaction kinetics of free Acetyl CoA-synthetase for acetate (pyrophosphate-molybdate assay, Table 1); format: biochemical; settings: acetate substrate at 37°C, ATP 1 mM, CoA 0.5 mM, Lineweaver-Burk plot
Procedure: (§2) The activity of free acetyl CoA synthetase and their bioconjugates with PNIPAm-AEMA or microgel was studied in borate buffer (0.1 M, pH 8), in presence of 20 mM potassium acetate, 4 mM MgCl2, 4 mM glutathione, 1 mM ATP, and 500 µM coenzyme A. The reaction was terminated by addition of acidic molybdate reagent. The pyrophosphate-molybdate complex formed was further reduced by addition of mercaptoethanol and Eikonogen reagent. The obtained coloured product was quantified by measuring the absorption at 590 nm and pyrophosphate concentration was determined (ε = 2.7 x 10^4 M^-1 cm^-1).
(§3) One unit of enzyme activity was defined as the amount of enzyme required to form 1 µmol pyrophosphate per min at pH 8 and 37°C. Bradford micro assay with a sensitivity of 1-10 µg/mL was used to determine protein concentration using bovine serum albumin as the standard protein. […]
as §1

[3] = target: T3, S-Acetyl-coenzyme A synthetase (EC 6.2.1.1) from baker's yeast, Immobilized enzyme (PNIPAm-AEMA); test: Reaction kinetics of PNIPAm-AEMA-immobilized Acetyl CoA-synthetase for acetate (pyrophosphate-molybdate assay, Table 1); format: biochemical; settings: acetate substrate at 37°C; ATP 1 mM, CoA 0.5 mM; enzyme covalently immobilized on PNIPAm-AEMA microgel
Procedure: Acetyl CoA-synthetase was covalently immobilized to PNIPAm-AEMA core-shell microgel using carbodiimide chemistry in 0.1 M Borate buffer at pH 8. Inorganic phosphate present in commercial enzyme preparation (interferes with molybdate assay) was removed by filtration using 30 kDa centrifuge filter tubes (Millipore).
as §2, with “cm^-1). […]” for “cm^-1).”
as §1

[4] = target: T2, S-Acetyl-coenzyme A synthetase (EC 6.2.1.1) from baker's yeast, free enzyme; test: Reaction kinetics of free Acetyl CoA-synthetase for acetate (citrate synthase/malate dehydrogenase coupled assay, Table 2); format: biochemical; settings: acetate substrate at 37°C, ATP 1 mM, CoA 0.5 mM, Lineweaver-Burk plot
Procedure: The activity of free and immobilized Acs was determined spectrophotometrically by following acetyl CoA synthesis at 340 nm wavelength by coupling to Citrate synthase (CS) and malate dehydrogenase (MDH) assay.
The assay medium composition for enzyme activity consists of 20 mM potassium acetate, 4 mM MgCl, 4 mM glutathione, 1 mM ATP, 500 µM co-enzyme A, 1 mM NAD and 4 mM malate in 100mM Tris Cl buffer pH 8. The acetyl CoA synthesized was correlated to the concentration of NADH formed in a coupled assay using […]. One unit of enzyme activity was defined as the amount of enzyme which is required to form 1 µmol of NADH per min at pH 8 and 37°C.
The reaction kinetics of free and immobilized enzymes was studied at various concentrations of acetate (5 mM - 0.3 mM) as a substrate and keeping concentrations of ATP and CoA constant at 1 mM and 0.5 mM, respectively. […]
as §1

[5] = substrate: CC(=O)O; test: Reaction kinetics of free Acetyl CoA-synthetase for acetate (pyrophosphate-molybdate assay, Table 1); format: biochemical, Saccharomyces cerevisiae; settings: other: acetate substrate at 37°C, acetate 5 mM - 0.3 mM, ATP 1 mM, CoA 0.5 mM, Lineweaver-Burk plot, free enzyme, pH 8.0
Procedure: as §2, §3, §1

Vmax [1] | Vmax [2] | Vmax [3] | Vmax [4] | Molecule | Km [5]
44 x10^-3± 2 x10^-3 U/min | 8.5x10^-3 ± 0.4x10^-3 U/min | 5.6 x10^-3± 0.1x10^-3 U/min | 16x10^-3 ± 1 x10^-3 U/min | CC(=O)O [acetate] | 
 |  |  |  | S-Acetyl-coenzyme A synthetase (EC 6.2.1.1) from baker's yeast, free enzyme (Saccharomyces cerevisiae S288C) (protein, purchased Sigma-Aldrich (Germany)) MSPSAVQSSKLEEQSSEIDKLKAKMSQSAATAQQKKEHEYEHLTSVKIVPQRPISDRLQPAIATHYSPHLDGLQDYQRLHKESIEDPAKFFGSKATQFLNWSKPFDKVFIPDPKTGRPSFQNNAWFLNGQLNACYNCVDRHALKTPNKKAIIFEGDEPGQGYSITYKELLEEVCQVAQVLTYSMGVRKGDTVAVYMPMVPEAIITLLAISRIGAIHSVVFAGFSSNSLRDRINDGDSKVVITTDESNRGGKVIETKRIVDDALRETPGVRHVLVYRKTNNPSVAFHAPRDLDWATEKKKYKTYYPCTPVDSEDPLFLLYTSGSTGAPKGVQHSTAGYLLGALLTMRYTFDTHQEDVFFTAGDIGWITGHTYVVYGPLLYGCATLVFEGTPAYPNYSRYWDIIDEHKVTQFYVAPTALRLLKRAGDSYIENHSLKSLRCLGSVGEPIAAEVWEWYSEKIGKNEIPIVDTYWQTESGSHLVTPLAGGVTPMKPGSASFPFFGIDAVVLDPNTGEELNTSHAEGVLAVKAAWPSFARTIWKNHDRYLDTYLNPYPGYYFTGDGAAKDKDGYIWILGRVDDVVNVSGHRLSTAEIEAAIIEDPIVAECAVVGFNDDLTGQAVAAFVVLKNKSSWSTATDDELQDIKKHLVFTVRKDIGPFAAPKLIILVDDLPKTRSGKIMRRILRKILAGESDQLGDVSTLSNPGIVRHLIDSVKL | 170 ± 30 µM
